Measured values taken from patent publication US20210323950A1, “HERBICIDALLY ACTIVE BICYCLIC BENZOYLPYRAZOLES” (Bayer Aktiengesellschaft, priority 2018, published 2021).

Tests used:
Assay type in all cases: in vivo
[1] = test system: Echinochloa crus-galli (ECHCG); assay: Pre-emergence herbicidal action against ECHCG; details: scored visually after about 3 weeks vs untreated controls
Setaria viridis (SETVI) = assay: Pre-emergence herbicidal action against SETVI; details: scored visually after about 3 weeks vs untreated controls
Viola tricolor (VIOTR) = assay: Pre-emergence herbicidal action against VIOTR; details: scored visually after about 3 weeks vs untreated controls
In short: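 Seeds were sown in pots and covered with soil. After ~3 weeks in the greenhouse, effect was scored visually versus untreated controls (100% = plants dead, 0% = like control).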

Veronica persica (VERPE) = assay: Pre-emergence herbicidal action against VERPE; details: scored visually after about 3 weeks vs untreated controls
In short: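 Weed seeds were sown in pots and covered with soil. Pots were kept in the greenhouse and damage was scored visually after about 3 weeks as percent versus untreated controls (100% = plants died).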

[2] = test system: Echinochloa crus-galli (ECHCG); assay: Post-emergence herbicidal action against ECHCG; details: 20 g/ha, post-emergence at one-leaf stage, rated visually after about 3 weeks vs untreated controls
In short: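 Greenhouse plants in sandy loam were sprayed at the one-leaf stage, 2-3 weeks after sowing. Activity was scored visually after about 3 weeks against untreated controls (0% = like control, 100% = dead).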

[3] = test system: Abutilon theophrasti (ABUTH); assay: Post-emergence herbicidal action against ABUTH; details: 20 g/ha, post-emergence at one-leaf stage, rated visually after about 3 weeks vs untreated controls
Procedure: ABUTH: Abutilon theophrasti 2. Post-Emergence Herbicidal Action and Crop Plant Compatibility Seeds of monocotyledonous and dicotyledonous weeds and crop plants are placed in sandy loam in plastic or organic planting pots, covered with soil and cultivated in a greenhouse under controlled growth conditions. 2 to 3 weeks after sowing, the test plants are treated at the one-leaf stage. The compounds of the invention, formulated in the form of wettable powders (WP) or as emulsion concentrates (EC), are then sprayed onto the green parts of the plants as aqueous suspension or emulsion with addition of 0.5% additive at a water application rate of […] (converted). After the test plants had been kept in the greenhouse under optimum growth conditions for about 3 weeks, the activity of the preparations is rated visually in comparison to untreated controls. The tables below show the herbicidal activity of numerous compounds according to the invention against important harmful plants. For example, 100% activity=the plants have died, 0% activity=like control plants.

Stellaria media (STEME) = assay: Post-emergence herbicidal action against STEME; details: 20 g/ha, post-emergence at one-leaf stage, rated visually after about 3 weeks vs untreated controls

| SMILES | Pre-emergence action against ECHCG ([1]; 320 g/ha) [%] | Pre-emergence action against SETVI (Setaria viridis (SETVI); 320 g/ha) [%] | Pre-emergence action against VIOTR (Viola tricolor (VIOTR); 320 g/ha) [%] | Pre-emergence action against VERPE (Veronica persica (VERPE); 320 g/ha) [%] | Post-emergence action against ECHCG [2] [%] | Post-emergence action against ABUTH [3] [%] | Post-emergence action against STEME (Stellaria media (STEME)) [%] | Pre-emergence action against ECHCG ([1]; 80 g/ha) [%] | Pre-emergence action against SETVI (Setaria viridis (SETVI); 80 g/ha) [%] | Pre-emergence action against VIOTR (Viola tricolor (VIOTR); 80 g/ha) [%] | Pre-emergence action against VERPE (Veronica persica (VERPE); 80 g/ha) [%] |
| --- | --- | --- | --- | --- | --- | --- | --- | --- | --- | --- | --- |
| Cn1ncc(C(=O)c2ccc(C(F)(F)F)c3c2OCS3)c1O [Example 1-13] | 100 | 100 | 100 | 100 | 90 | 90 | 100 |  |  |  |  |
| Cn1ncc(C(=O)c2ccc(C(F)(F)F)c3c2OCCS3)c1O [Example 1-15] |  |  |  |  | 80 |  | 90 | 80 | 100 | 100 | 90 |
| Cn1ncc(C(=O)c2ccc(C(F)(F)F)c3c2OC[S+]3[O-])c1O (centres unmarked) [Example 1-28] | 100 | 100 | 100 | 100 | 90 | 90 | 90 |  |  |  |  |
| Cn1ncc(C(=O)c2ccc(C(F)(F)F)c3c2OCC[S+]3[O-])c1O (centres unmarked) [Example 1-30] |  |  |  |  | 100 | 80 |  | 100 | 100 | 100 |  |
| CCn1ncc(C(=O)c2ccc(C(F)(F)F)c3c2OCC[S+]3[O-])c1O (centres unmarked) [Example 1-35] |  |  |  |  | 80 | 90 | 90 | 100 | 100 | 100 |  |
| Cc1nn(C)c(O)c1C(=O)c1ccc(C(F)(F)F)c2c1OCC[S+]2[O-] (centres unmarked) [Example 1-40] |  |  |  |  | 90 | 80 | 100 | 80 | 100 |  |  |
| Cn1ncc(C(=O)c2ccc(C(F)(F)F)c3c2OCCS3(=O)=O)c1O [Example 1-45] |  |  |  |  |  |  | 100 | 100 | 100 | 100 | 100 |
| CCn1ncc(C(=O)c2ccc(C(F)(F)F)c3c2OCCS3(=O)=O)c1O [Example 1-50] |  |  |  |  | 80 | 90 | 80 | 100 | 100 |  | 90 |
| Cc1nn(C)c(O)c1C(=O)c1ccc(C(F)(F)F)c2c1OCCS2(=O)=O [Example 1-55] |  |  |  |  | 100 | 90 | 90 | 100 |  | 90 | 90 |
| Cn1nc(C2CC2)c(C(=O)c2ccc(C(F)(F)F)c3c2OCC[S+]3[O-])c1O (centres unmarked) [Example 1-116] |  |  |  |  | 100 | 90 | 100 | 80 | 100 | 100 | 80 |
| Cn1ncc(C(=O)c2ccc(C(F)(F)C(F)(F)F)c3c2OCS3)c1O [Example 1-128] |  |  |  |  | 90 |  | 80 | 90 | 100 | 100 |  |
